The results in this text go back to patent US4260608A, “Maytansinoids, pharmaceutical compositions thereof and methods of use thereof” (Takeda Chemical Industries, Ltd., priority 1978, dated 1981).

Values after ≈ are worked out from the molar mass of the structure shown. Read-outs that look alike come from different tables or passages of the source.

What is called MIC is the smallest concentration in the dilution series that meets the test's criterion for growth inhibition.

One assay relates to Tetrahymena pyriformis W. Briefly: Antiprotozoal activity, growth inhibition by serial dilution method. It is filed as cell-based. The procedure:
Antiprotozoal activity of compound (I) was assayed with Tetrahymena pyriformis W as the test organism and a medium composed of 20 g tryptose-peptone (Difco Co.), 1 g yeast extract, 2 g glucose, 1000 ml distilled water, 10 ml 1 M phosphate buffer (pH 7.0) as the assay medium. The microorganism was incubated at 28° C. for 44 to 48 hours and the growth inhibitory activity of compound (I) was assayed by the serial dilution method.

The test system of assay [1] is melanoma B-16 tumor cells. Briefly: Antitumor activity, life span prolongation in mice transplanted intraperitoneally with melanoma B-16. Type of assay: in vivo. Particulars: intraperitoneal, once daily for 9 consecutive days. The protocol:
Therapeutic tests were carried out in mice according to NCI-protocol 1,300, Cancer Chemother, Reports, Part 3, 1972, Vol. 3, No. 2, in which melanoma B-16 tumor cells had been intraperitoneally transplanted, compound (I) being administered intraperitoneally once daily for 9 consecutive days.

Setting [2] is: Tetrahymena pyriformis W, 28° C., 44 to 48 hours, pH 7.0 medium, serial dilution, read-out: Antiprotozoal activity MIC.

Regarding `COc1cc2cc(c1Cl)N(C)C(=O)CC(OC(=O)[C@@H](CC(C)C)N(C)C(C)=O)C1(C)OC1C(C)C1CC(O)(NC(=O)O1)C(OC)C=CC=C(C)C2` (stereo partly drawn) [maytansinol 3-(N-acetyl-N-methyl)-D-leucine ester], in the assay on Tetrahymena pyriformis W (Tetrahymena pyriformis, pH 7, read-out: Antiprotozoal activity MIC), the MIC is 28 µg/mL (≈ 38.1 µM).
With `COc1cc2cc(c1Cl)N(C)C(=O)CC(OC(=O)[C@H](CC(C)C)N(C)C(C)=O)C1(C)OC1C(C)C1CC(O)(NC(=O)O1)C(OC)C=CC=C(C)C2` (stereo partly drawn) [maytansinol 3-(N-acetyl-N-methyl)-L-leucine ester], the “Antitumor activities B-16 (T/C %)” value is on record as 171% in assay [1] (25 μg/kg), 209% in assay [1] (50 μg/kg), 202% in assay [1] (100 μg/kg) and 65% in assay [1] (200 μg/kg). Also, in the assay on Tetrahymena pyriformis W (setting [2]), the MIC worked out at 2 µg/mL (≈ 2.72 µM).
Consider `COc1cc2cc(c1Cl)N(C)C(=O)CC(OC(=O)[C@@H](C)N(C)C(=O)OC(C)(C)C)C1(C)OC1C(C)C1CC(O)(NC(=O)O1)C(OC)C=CC=C(C)C2` (stereo partly drawn) [maytansinol 3-(N-tert-butoxycarbonyl-N-methyl)-D-alanine ester], for which the MIC in the assay with Tetrahymena pyriformis W (setting [2]) came out at 8 µg/mL (≈ 10.7 µM).
On to `COc1cc2cc(c1Cl)N(C)C(=O)CC(OC(=O)[C@H](Cc1ccccc1)N(C)C(C)=O)C1(C)OC1C(C)C1CC(O)(NC(=O)O1)C(OC)C=CC=C(C)C2` (stereo partly shown), for which the “Antitumor activities B-16 (T/C %)” value in assay [1] (25 μg/kg) is 211%; in assay [1] (50 μg/kg), 208%; in assay [1] (100 μg/kg), 205%; in assay [1] (200 μg/kg) it was 95%. The MIC with Tetrahymena pyriformis W (setting [2]) stood at 1 µg/mL (≈ 1.3 µM).
With `COc1cc2cc(c1Cl)N(C)C(=O)CC(OC(=O)[C@H](C)N(C)C(=O)c1ccccc1)C1(C)OC1C(C)C1CC(O)(NC(=O)O1)C(OC)C=CC=C(C)C2` (stereo partly drawn) [maytansinol 3-(N-benzoyl-N-methyl)-L-alanine ester], the MIC in the assay on Tetrahymena pyriformis W (setting [2]) lay within 2 to 4 µg/mL (≈ 2.65 to 5.3 µM).
The same measure, in the same setting: as for `COc1cc2cc(c1Cl)N(C)C(=O)CC(OC(=O)[C@H](Cc1ccccc1)NC(=O)OC(C)(C)C)C1(C)OC1C(C)C1CC(O)(NC(=O)O1)C(OC)C=CC=C(C)C2` (stereo partly drawn) [maytansinol 3-(N-t-butyloxycarbonyl)-L-phenylalanine ester], the figure is 4 µg/mL (≈ 4.92 µM).
Regarding `COc1cc2cc(c1Cl)N(C)C(=O)CC(OC(=O)[C@H](C)N(C)C(=O)OC(C)(C)C)C1(C)OC1C(C)C1CC(O)(NC(=O)O1)C(OC)C=CC=C(C)C2` (stereo partly drawn) [maytansinol 3-(N-tert-butoxycarbonyl-N-methyl)-L-alanine ester], the “Antitumor activities B-16 (T/C %)” value in assay [1] (12.5 μg/kg) is listed as 163%; in assay [1] (25 μg/kg), 178%; in assay [1] (50 μg/kg), 198%; in assay [1] (100 μg/kg) it was 193%. For the same compound, the MIC in the assay on Tetrahymena pyriformis W (setting [2]) was in the range of 0.4 to 0.8 µg/mL (≈ 0.533 to 1.07 µM).
